Read-outs that look alike come from different tables or passages of the source.
Tests used:
C17-C20 lyase = biological target: T1, C17-C20 lyase (Homo sapiens, UniProt P05093); experiment: Determination of C17-C20 lyase (human testicular microsomes, 3H-17α-hydroxyprogesterone substrate, HPLC); format: biochemical
T1 construct: The microsomal pellet was then resuspended in 50mM sodium phosphate pH 7.4/glycerol (3/1 v/v) and stored in aliquots in liquid nitrogen; from tissue; host or cells: human testis microsomes
T1 sequence (P05093 1-508): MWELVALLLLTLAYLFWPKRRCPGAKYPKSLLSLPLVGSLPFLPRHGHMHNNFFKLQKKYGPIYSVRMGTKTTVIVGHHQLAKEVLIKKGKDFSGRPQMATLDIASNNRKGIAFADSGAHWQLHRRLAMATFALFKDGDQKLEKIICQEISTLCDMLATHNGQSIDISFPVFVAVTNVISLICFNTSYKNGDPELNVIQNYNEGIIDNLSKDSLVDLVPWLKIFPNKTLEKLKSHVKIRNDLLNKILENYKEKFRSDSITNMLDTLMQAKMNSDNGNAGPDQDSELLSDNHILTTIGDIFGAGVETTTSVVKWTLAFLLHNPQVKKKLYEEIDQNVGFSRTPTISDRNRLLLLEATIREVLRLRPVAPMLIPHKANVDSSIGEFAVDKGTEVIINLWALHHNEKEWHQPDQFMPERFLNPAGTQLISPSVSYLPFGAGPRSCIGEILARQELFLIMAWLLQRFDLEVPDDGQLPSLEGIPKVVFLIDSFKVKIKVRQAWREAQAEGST
Protocol: Human testes were obtained from previously untreated patients undergoing orchidectomy for prostatic cancer. The testes were decapsulated and stored in liquid nitrogen until use. […] The material was then thawed, finely chopped, and homogenised in 0.25M sucrose (5ml/g wet weight) using a Potter homogeniser. The homogenate was centrifuged at 12000g for 30 min, and then the microsomes were pelleted by spinning the supernatant at 100,000g for lhr. The pellet was washed by being resuspended in 0.25M sucrose and repelleted. The microsomal pellet was then resuspended in 50mM sodium phosphate pH 7.4/glycerol (3/1 v/v) and stored in aliquots in liquid nitrogen.
The mixture was the same as described above for the 17«-hydroxylase except that the substrate was ^3H-17α-hydroxyprogesterone.
The HPLC separation used for the lyase involved a mini-re-column "Uptight Guard Column" packed with PELL-ODS (pellicular octadecyl silica) and a 10cm. main column "Apex C18" column packed with 5µ APEX-CAT silica. The eluant was 38:12:50 methanol:acetonitrile:water flowing at lml/min. The effluent was mixed 1:1 with Ecoscint A containing 5% methanol and 5% acetonitrile and the radioactivity was measured directly by a Berthold LB506C radiochemical detector. The lyase activity was measured as the production of androstenedione and testosterone.
The enzyme activity was measured in the presence of at least 4 concentrations of each compound. The data were for the 4-pyridyl and 2-picolyl compounds of Table 1 fitted by linear regression to the Dixon equation (M. Dixon, E.C. Webb, Enzymes, 2nd ed., Academic Press, New York, 1964). Data for all the other compounds were fitted by non-linear regression to the median effect equation of Chou, J. Theoret.

17α-hydroxylase = biological target: T2, 17α-hydroxylase (Homo sapiens, UniProt P05093); experiment: Determination of 17α-hydroxylase (human testicular microsomes, 3H-progesterone substrate, HPLC); format: biochemical
T2 construct: The microsomal pellet was then resuspended in 50mM sodium phosphate pH 7.4/glycerol (3/1 v/v) and stored in aliquots in liquid nitrogen; from tissue; host or cells: human testis microsomes
T2 sequence (P05093 1-508): T1 sequence (P05093 1-508)
Protocol: Human testes were obtained from previously untreated patients undergoing orchidectomy for prostatic cancer. The testes were decapsulated and stored in liquid nitrogen until use. A microsomal preparation was prepared essentially as described by S. E. Barrie et al., J. Steroid Biochem. 6, 1191-5, (1989). The material was then thawed, finely chopped, and homogenised in 0.25M sucrose (5ml/g wet weight) using a Potter homogeniser. The homogenate was centrifuged at 12000g for 30 min, and then the microsomes were pelleted by spinning the supernatant at 100,000g for lhr. The pellet was washed by being resuspended in 0.25M sucrose and repelleted. The microsomal pellet was then resuspended in 50mM sodium phosphate pH 7.4/glycerol (3/1 v/v) and stored in aliquots in liquid nitrogen.
The basic assay mixture was EDTA (0.2mM), dithiothreitol (DTT; 0.1mM), NADPH (0.25mM), glucose 6-phosphate dehydrogenase (G6PDH; 6.25 µg/ml), MgCl2 (1mM), glucose 6-phosphate (G6P; 10mM) and the substrate, ^3H-progesterone (3µM) in sodium phosphate (50mm), pH 7.4. The compounds under test were dissolved in 50% DMSO and the final concentrations of ethanol and DMSO were 1% each. The assay reaction was carried out for 1 hour and was terminated by the addition of 2 vols. of methanol-acetonitrile (2:1) containing approx. 100µM unlabelled progesterone, 17α-hydroxyprogesterone, androstenedione, testosterone, and 16α-hydroxyprogesterone.
The separation of the steroids by HPLC was carried out using an "Uptight" guard column packed with 40-63µm Nucleosil C18 and a 10cm main column packed with 5µm Nucleosil C18 and 60% methanol as eluant. The radioactivity in the peaks of interest was monitored on-line by mixing the HPLC effluent 1:1 with Ecoscint A (National Diagnostics) scintillation fluid, containing 25% acetonitrile, and passing the mixture through a Berthold LB506C radiochemical monitor. The hydroxylase activity was measured as the production of 17α-hydroxyprogesterone, androstenedione and testosterone.
The enzyme activity was measured in the presence of at least 4 concentrations of each compound.

Male HWT mice [1] = conditions: mouse, in vivo; for Post mortem examination: appearance of organs / Post mortem examination: deposits: ip
Protocol: (§1) Male HWT mice, 12 weeks old, were treated daily for 2 weeks, with 5 animals per treatment group. The test compounds were the compound of Examples 1 and 4 (as representative of compounds of the invention having the pregenolone-like and progesterone-like skeletons respectively). Ketoconazole was also tested at three different doses. The test compounds were made up in 5% benzyl alcohol, 95% safflower oil, and were given i.p.. In addition to an untreated control group of animals, there was also a solvent control group which received the same volume of liquid as the test group (5ml/kg) but no test compound. All animals were sacrificed 24 hours after the last injection. Blood was collected by cardiac puncture into heparinized tubes, and the plasma used for RIA (radio immunoassay) of testosterone and luteinising hormone. The following organs were removed and weighed: adrenals, prostate, seminal vesicles, testes, kidneys. There was no significant body weight loss in any group of mice during the experiments.
In Ketoconazole-treated animals, adhesions were found in 2/5,2/5,4/5 of the low/middle/top dose groups. […] The livers were brown in the middle/top dose groups.

testosterone = experiment: In vivo endocrine test in mice: RIA of plasma testosterone; conditions: 2 weeks, plasma 24 hours after last injection, mean ± standard error
Protocol: Male HWT mice, 12 weeks old, were treated daily for 2 weeks, with 5 animals per treatment group. […] The test compounds were made up in 5% benzyl alcohol, 95% safflower oil, and were given i.p.. In addition to an untreated control group of animals, there was also a solvent control group which received the same volume of liquid as the test group (5ml/kg) but no test compound. All animals were sacrificed 24 hours after the last injection. Blood was collected by cardiac puncture into heparinized tubes, and the plasma used for RIA (radio immunoassay) of testosterone and luteinising hormone.

Male HWT mice [2] = format: in vivo; conditions: daily for 2 weeks, mean ± standard error
Protocol: as §1

aromatase = biological target: T3, aromatase (Homo sapiens, UniProt P11511); experiment: biochemical
T3 sequence (P11511 1-503): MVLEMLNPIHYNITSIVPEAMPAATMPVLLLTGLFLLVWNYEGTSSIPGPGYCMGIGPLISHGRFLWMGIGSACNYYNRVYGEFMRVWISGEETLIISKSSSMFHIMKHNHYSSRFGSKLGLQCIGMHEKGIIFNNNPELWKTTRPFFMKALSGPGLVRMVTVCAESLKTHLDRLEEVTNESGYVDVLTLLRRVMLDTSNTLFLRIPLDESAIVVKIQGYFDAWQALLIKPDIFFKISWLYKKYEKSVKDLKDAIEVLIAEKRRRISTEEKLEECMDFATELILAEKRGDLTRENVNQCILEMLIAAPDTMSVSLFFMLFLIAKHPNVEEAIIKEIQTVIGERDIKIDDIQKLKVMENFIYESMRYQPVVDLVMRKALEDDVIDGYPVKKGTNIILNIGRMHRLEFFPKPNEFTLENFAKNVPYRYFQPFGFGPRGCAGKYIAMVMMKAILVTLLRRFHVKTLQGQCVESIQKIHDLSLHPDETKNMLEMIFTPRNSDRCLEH
Protocol: Aromatase activity was determined by the method of A. B. Foster et al., J. Med. Chem. 26, 50-54 (1983), using human placental microsomes.

luteinising hormone = experiment: In vivo endocrine test in mice: RIA of plasma luteinising hormone; conditions: 2 weeks, plasma 24 hours after last injection, mean ± standard error
Protocol: as §1

[3] = approx. 4nM enzyme, read-out: IC50 (µM) Lyase
[4] = approx. 4nM enzyme, read-out: IC50 (µM) Hydroxylase
[5] = 25nM lyase, read-out: IC50 (µM) Lyase
[6] = 10nM hydroxylase, read-out: IC50 (µM) Hydroylase

C[C@]12CCC=CC1=CC[C@@H]1[C@@H]2CC[C@]2(C)C(c3cccnc3)=CC[C@@H]12 [Ex. 3, 17-(3-Pyridyl)androsta-3,5,16-triene]
IC50 (C17-C20 lyase; [3]): 0.0056 µM | IC50 (17α-hydroxylase; [4]): 0.0125 µM

C[C@]12CCC(=O)C=C1[C@@H](F)C[C@@H]1[C@@H]2CC[C@]2(C)C(c3cccnc3)=CC[C@@H]12 [Ex. 13, 6α-Fluoro-17-(3-pyridyl)androsta-4,16-dien-3-one]
IC50 (C17-C20 lyase; [3]): 0.0032 µM | IC50 (17α-hydroxylase; [4]): 0.0053 µM

C[C@]12CC[C@@H](O)C[C@@H]1CC[C@@H]1[C@@H]2CC[C@]2(C)C(c3cccnc3)=CC[C@@H]12 [Ex. 8, 17-(3-Pyridyl)-5α-androst-16-en-3α-ol]
IC50 (C17-C20 lyase): 0.0025 µM | IC50 (17α-hydroxylase): 0.0043 µM

C[C@]12CCC(=O)C=C1CC[C@@H]1[C@@H]2CC[C@]2(C)C(c3cccnc3)=CC[C@@H]12 [Ex. 4, 17-(3-Pyridyl)androsta-4,16-dien-3-one]
Post mortem examination: appearance of organs (Male HWT mice [1]): all organs looked normal | Post mortem examination: deposits (Male HWT mice [1]): white deposits throughout the abdomen | Testosterone (testosterone; 0.02Mmol/Kg/Day i.p.): 4.5 ± 0.3 nM | Testosterone (testosterone; 0.5Mmol/Kg/Day i.p.): 0.4 ± 0.1 nM | Testosterone (testosterone; i.p.): 3.5 ± 1.0 nM | Mean weight Kidneys (Male HWT mice [2]; 0.02 mmol/kg/day i.p.): 599 ± 29 mg | Mean weight Prostate (Male HWT mice [2]; 0.02 mmol/kg/day i.p.): 5.9 ± 0.8 mg | Mean weight Seminal Vesicles (Male HWT mice [2]; 0.02 mmol/kg/day i.p.): 108 ± 4 mg | Mean weight Testes (Male HWT mice [2]; 0.02 mmol/kg/day i.p.): 117 ± 9 mg | Mean weight Kidneys (Male HWT mice [2]; 0.1 mmol/kg/day i.p.): 549 ± 28 mg | Mean weight Prostate (Male HWT mice [2]; 0.1 mmol/kg/day i.p.): 6.4 ± 0.5 mg | Mean weight Seminal Vesicles (Male HWT mice [2]; 0.1 mmol/kg/day i.p.): 61 ± 9 mg | Mean weight Testes (Male HWT mice [2]; 0.1 mmol/kg/day i.p.): 105 ± 5 mg | Mean weight Kidneys (Male HWT mice [2]; 0.5 mmol/kg/day i.p.): 468 ± 15 mg | Mean weight Prostate (Male HWT mice [2]; 0.5 mmol/kg/day i.p.): 4.1 ± 0.5 mg | Mean weight Seminal Vesicles (Male HWT mice [2]; 0.5 mmol/kg/day i.p.): 25 ± 1 mg | Mean weight Testes (Male HWT mice [2]; 0.5 mmol/kg/day i.p.): 59 ± 2 mg | IC50 (aromatase): 1000 nM | IC50 (C17-C20 lyase; [3]): 0.0021 µM | IC50 (17α-hydroxylase; [4]): 0.0028 µM

C[C@]12CC[C@H](O)CC1=CC[C@@H]1[C@@H]2CC[C@]2(C)C(c3ccncc3)=CC[C@@H]12 [Example 4-pyridyl, reference compound]
IC50 (C17-C20 lyase; [5]): 2 µM | IC50 (17α-hydroxylase; [6]): 5 µM

C[C@]12CC[C@H](O)CC1=CC[C@@H]1[C@@H]2CC[C@]2(C)C(c3cccnc3)=CC[C@@H]12 [Ex. 2, 17-(3-Pyridyl)androsta-5,16-dien-3β-ol]
IC50 (C17-C20 lyase; [3]): 0.0029 µM | IC50 (17α-hydroxylase; [4]): 0.004 µM

C[C@]12CC[C@@H]3c4ccc(O)cc4CC[C@H]3[C@@H]1CC=C2c1cccnc1 [Ex. 6, 17-(3-Pyridyl)estra-1,3,5[10],16-tetraen-3-ol]
IC50 (C17-C20 lyase; [3]): 0.0018 µM | IC50 (17α-hydroxylase; [4]): 0.0026 µM

C[C@]12CC[C@H](O)CC1=CC[C@@H]1[C@@H]2CC[C@]2(C)C(c3ccccn3)=CC[C@@H]12 [Example 2-Pyridyl, reference compound]
IC50 (C17-C20 lyase): 0.13 µM | IC50 (17α-hydroxylase): 0.32 µM

C[C@]12CCC(=O)C=C1[C@H](F)C[C@@H]1[C@@H]2CC[C@]2(C)C(c3cccnc3)=CC[C@@H]12 [Ex. 12, 6β-Fluoro-17-(3-pyridyl)androsta-4,16-dien-3-one]
IC50 (C17-C20 lyase; [3]): 0.0022 µM | IC50 (17α-hydroxylase; [4]): 0.0033 µM

CC(=O)N1CCN(c2ccc(OCC3COC(Cn4ccnc4)(c4ccc(Cl)cc4Cl)O3)cc2)CC1 (stereo not drawn) [Ketoconazole, reference compound]
Post mortem examination: livers (Male HWT mice [1]): brown | Mean weight Kidneys (Male HWT mice [2]; 0.01mmol/kg/day i.p.): 637 ± 22 mg | Mean weight Prostate (Male HWT mice [2]; 0.01mmol/kg/day i.p.): 9.1 ± 0.8 mg | Mean weight Seminal Vesicles (Male HWT mice [2]; 0.01mmol/kg/day i.p.): 235 ± 18 mg | Mean weight Testes (Male HWT mice [2]; 0.01mmol/kg/day i.p.): 141 ± 5 mg | Mean weight Kidneys (Male HWT mice [2]; 0.225 mmol/kg/day i.p.): 574 ± 23 mg | Mean weight Prostate (Male HWT mice [2]; 0.225 mmol/kg/day i.p.): 10.8 ± 1.4 mg | Mean weight Seminal Vesicles (Male HWT mice [2]; 0.225 mmol/kg/day i.p.): 171 ± 5 mg | Mean weight Testes (Male HWT mice [2]; 0.225 mmol/kg/day i.p.): 127 ± 7 mg | Mean weight Kidneys (Male HWT mice [2]; 0.5 mmol/kg/day i.p.): 710 ± 30 mg | Mean weight Prostate (Male HWT mice [2]; 0.5 mmol/kg/day i.p.): 9.3 ± 0.9 mg | Mean weight Seminal Vesicles (Male HWT mice [2]; 0.5 mmol/kg/day i.p.): 179 ± 20 mg | Mean weight Testes (Male HWT mice [2]; 0.5 mmol/kg/day i.p.): 133 ± 6 mg | LH (luteinising hormone; 0.1Mmol/Kg/Day i.p.): 0.39 ± 0.14 ng/mL | LH (luteinising hormone; 0.225Mmol/Kg/Day i.p.): 0.75 ± 0.02 ng/mL | LH (luteinising hormone; 0.5Mmol/Kg/Day i.p.): 0.76 ± 0.03 ng/mL

C[C@]12CCC(=O)C[C@@H]1CC[C@@H]1[C@@H]2CC[C@]2(C)C(c3cccnc3)=CC[C@@H]12 [Ex. 9, 17-(3-Pyridyl)-5α-androst-16-en-3-one]
IC50 (C17-C20 lyase): 0.003 µM

C[C@]12CCC(=O)C=C1CC[C@@H]1[C@@H]2C(=O)C[C@]2(C)C(c3cccnc3)=CC[C@@H]12 [Ex. 10, 17-(3-Pyridyl)androsta-4,16-diene-3,11-dione]
IC50 (C17-C20 lyase; [3]): 0.0025 µM | IC50 (17α-hydroxylase; [4]): 0.0091 µM

C[C@]12CC[C@H](O)CC1=CC[C@@H]1[C@@H]2CC[C@]2(C)C(Cc3ccccn3)=CC[C@@H]12 [Example 2-picolyl, reference compound]
IC50 (C17-C20 lyase; [5]): > 10 µM | IC50 (17α-hydroxylase; [6]): > 10 µM

CC(=O)O[C@H]1CC[C@@]2(C)C(=CC[C@@H]3[C@@H]2CC[C@]2(C)C(c4cccnc4)=CC[C@@H]32)C1 [Ex. 1, 3β-Acetoxy-17-(3-pyridyl)androsta-5,16-diene]
Post mortem examination: appearance of organs (Male HWT mice [1]): all organs looked normal | Post mortem examination: deposits (Male HWT mice [1]): oil/white deposits i.p. | Testosterone (testosterone; 0.02Mmol/Kg/Day i.p.): 2.7 ± 0.5 nM | Testosterone (testosterone; 0.5Mmol/Kg/Day i.p.): 0.1 ± 0.0 nM | Testosterone (testosterone; i.p.): 0.2 ± 0.1 nM | Mean weight Kidneys (Male HWT mice [2]; 0.02 mmol/kg/day i.p.): 604 ± 24 mg | Mean weight Prostate (Male HWT mice [2]; 0.02 mmol/kg/day i.p.): 8.0 ± 0.6 mg | Mean weight Seminal Vesicles (Male HWT mice [2]; 0.02 mmol/kg/day i.p.): 136 ± 4 mg | Mean weight Testes (Male HWT mice [2]; 0.02 mmol/kg/day i.p.): 134 ± 4 mg | Mean weight Kidneys (Male HWT mice [2]; 0.1 mmol/kg/day i.p.): 500 ± 8 mg | Mean weight Prostate (Male HWT mice [2]; 0.1 mmol/kg/day i.p.): 5.3 ± 0.3 mg | Mean weight Seminal Vesicles (Male HWT mice [2]; 0.1 mmol/kg/day i.p.): 51 ± 6 mg | Mean weight Testes (Male HWT mice [2]; 0.1 mmol/kg/day i.p.): 95 ± 3 mg | Mean weight Kidneys (Male HWT mice [2]; 0.5 mmol/kg/day i.p.): 449 ± 12 mg | Mean weight Prostate (Male HWT mice [2]; 0.5 mmol/kg/day i.p.): 5.6 ± 0.6 mg | Mean weight Seminal Vesicles (Male HWT mice [2]; 0.5 mmol/kg/day i.p.): 25 ± 2 mg | Mean weight Testes (Male HWT mice [2]; 0.5 mmol/kg/day i.p.): 56 ± 2 mg | IC50 (aromatase): > 20000 nM | LH (luteinising hormone; 0.02Mmol/Kg/Day i.p.): 3.4 ± 0.5 ng/mL | LH (luteinising hormone; 0.1Mmol/Kg/Day i.p.): 2.55 ± 0.45 ng/mL | LH (luteinising hormone; 0.5Mmol/Kg/Day i.p.): 2.25 ± 0.67 ng/mL

— EP0633893B1, “17-SUBSTITUTED STEROIDS USEFUL IN CANCER TREATMENT” (priority 1992, dated 1993)
